One assay has as its target T1, PhKγ2(h) (Homo sapiens, UniProt P15735).
T1 construct: purchased Eurofins (KinaseProfiler)
T1 sequence (P15735 1-406): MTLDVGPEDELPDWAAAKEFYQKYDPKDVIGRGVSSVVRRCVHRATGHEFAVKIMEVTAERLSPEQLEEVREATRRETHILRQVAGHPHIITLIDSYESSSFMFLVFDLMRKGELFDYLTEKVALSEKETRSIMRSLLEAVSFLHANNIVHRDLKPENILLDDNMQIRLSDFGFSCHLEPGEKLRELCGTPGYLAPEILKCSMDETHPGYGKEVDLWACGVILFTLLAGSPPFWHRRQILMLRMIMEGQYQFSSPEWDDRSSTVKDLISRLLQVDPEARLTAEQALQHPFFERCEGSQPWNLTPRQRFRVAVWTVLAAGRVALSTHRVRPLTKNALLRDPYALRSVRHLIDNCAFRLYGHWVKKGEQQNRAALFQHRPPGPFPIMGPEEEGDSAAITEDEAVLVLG
The assay can be described thus: Eurofins kinase panel. The format is biochemical. The following applies: read-out: Inhibition rate (%).

The test system of assay [1] is MC38 colorectal adenocarcinoma model. The assay can be described thus: In vivo antitumor activity, MC38 model. Also on record: species or system C57BL/6 mice. The settings on record: oral once daily 23 days. The method, then: For the MC38 xenograft model, 6-week-old C57BL/6 mice were housed and maintained under specific pathogen-free conditions. Tumor cells (2 × 10^6 in 200 μL) were injected subcutaneously (s.c.) into the right flanks of C57BL/6 mice. […] The tumors were measured twice per week using a microcaliper. Tumor volume (TV) was calculated as follows: TV = (length × width^2)/2. In addition, the individual relative tumor volume (RTV) was calculated as follows: RTV = Vt / V0, where Vt is the volume on a particular day and V0 is the volume at the beginning of the treatment. The RTV is shown on the indicated days as the […] ± SEM for the indicated groups of mice.

For the next assay, the target named is T2, IKKε(h) (Homo sapiens, UniProt Q14164).
T2 construct: purchased Eurofins (KinaseProfiler)
T2 sequence (Q14164 1-716): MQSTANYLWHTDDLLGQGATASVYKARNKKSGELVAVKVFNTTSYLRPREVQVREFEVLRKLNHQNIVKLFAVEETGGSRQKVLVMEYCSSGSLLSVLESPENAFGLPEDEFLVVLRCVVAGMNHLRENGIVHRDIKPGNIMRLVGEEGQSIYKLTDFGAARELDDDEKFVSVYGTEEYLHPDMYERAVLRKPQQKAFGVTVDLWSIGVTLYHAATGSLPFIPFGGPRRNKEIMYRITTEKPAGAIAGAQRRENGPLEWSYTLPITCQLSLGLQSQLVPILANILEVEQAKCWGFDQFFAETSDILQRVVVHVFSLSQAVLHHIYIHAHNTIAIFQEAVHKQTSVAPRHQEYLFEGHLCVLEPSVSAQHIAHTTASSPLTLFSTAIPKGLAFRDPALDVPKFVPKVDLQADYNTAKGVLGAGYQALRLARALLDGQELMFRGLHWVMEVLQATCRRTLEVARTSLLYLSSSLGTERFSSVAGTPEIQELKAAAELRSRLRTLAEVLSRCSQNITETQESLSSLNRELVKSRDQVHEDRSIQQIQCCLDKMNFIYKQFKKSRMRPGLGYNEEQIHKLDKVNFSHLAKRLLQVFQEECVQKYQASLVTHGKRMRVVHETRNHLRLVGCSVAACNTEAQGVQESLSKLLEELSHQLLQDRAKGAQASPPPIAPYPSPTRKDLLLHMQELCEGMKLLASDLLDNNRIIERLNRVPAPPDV
The assay can be described thus: Eurofins kinase panel. It counts as biochemical. The settings on record: read-out: Inhibition rate (%).

The next assay addresses T3, DMPK(h) (Homo sapiens, UniProt Q09013).
T3 construct: purchased Eurofins (KinaseProfiler)
T3 sequence (Q09013 1-629): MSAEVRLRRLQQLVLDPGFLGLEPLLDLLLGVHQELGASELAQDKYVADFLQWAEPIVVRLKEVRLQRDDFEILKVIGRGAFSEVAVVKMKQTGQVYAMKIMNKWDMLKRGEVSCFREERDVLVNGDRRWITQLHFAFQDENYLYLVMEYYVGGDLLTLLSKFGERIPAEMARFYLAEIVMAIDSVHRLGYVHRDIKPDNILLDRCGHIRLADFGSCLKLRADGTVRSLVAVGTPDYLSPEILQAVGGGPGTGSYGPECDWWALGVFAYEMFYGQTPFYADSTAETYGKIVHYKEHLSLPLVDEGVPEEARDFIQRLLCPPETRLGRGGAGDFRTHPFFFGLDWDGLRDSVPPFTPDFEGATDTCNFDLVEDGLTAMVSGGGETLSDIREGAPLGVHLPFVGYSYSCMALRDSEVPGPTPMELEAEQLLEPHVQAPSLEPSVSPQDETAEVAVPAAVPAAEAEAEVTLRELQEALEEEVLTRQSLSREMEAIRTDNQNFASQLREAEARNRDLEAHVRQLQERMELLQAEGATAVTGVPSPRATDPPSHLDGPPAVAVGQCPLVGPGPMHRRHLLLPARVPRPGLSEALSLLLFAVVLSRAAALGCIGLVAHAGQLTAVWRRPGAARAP
The assay can be described thus: Eurofins kinase panel. The settings on record: read-out: Inhibition rate (%). The format is biochemical.

For another assay, the target named is T4, WNK3(h) (Homo sapiens, UniProt Q9BYP7).
T4 construct: purchased Eurofins (KinaseProfiler)
The assay can be described thus: Eurofins kinase panel. It counts as biochemical. The following applies: read-out: Inhibition rate (%).

The next assay addresses FGFR2(N549H)(h) (Homo sapiens, UniProt P21802, N549H). The assay can be described thus: Eurofins kinase panel. It counts as biochemical.
For assay [2], the system named is 11 FGFR- or CSF-1R-dependent cancer cell lines. The assay can be described thus: Cell proliferation assay, sensitive panel. The format is cell-based. The method, then:
The cancer cell lines indicated in Figure 3 were seeded in 96-well plates at a low density in growth medium. The next day, appropriate controls or the designated concentrations of the compounds were added to each well, and the cells were incubated for 72 h. HUVECs (passage 3) were seeded in 96-well plates in growth medium overnight and transferred to serum-free medium for 24 h. The following day, appropriate controls or the designated concentrations of the compounds were added to each well, and 100 ng/mL growth factor (bFGF or VEGF) was added to the indicated wells. The cells were incubated for 48 h. Finally, cell proliferation was determined using a sulforhodamine B (SRB) assay or a cell counting kit-8 (CCK-8) assay. […] IC50 values for proliferation curves were calculated using a 4-parameter logistic nonlinear regression model with SoftMax Pro Software (Molecular Devices, San Jose, USA).

For orientation: inhibition means the drop in the measured response relative to a control, in per cent. As a reminder, the pIC50 is the IC50 on a negative log10 scale, so that one unit is a factor of ten.

pIC50: −log10 of the molar value. Where two headings read alike, the source gives them in different places.

T4 sequence (Q9BYP7 whole entry): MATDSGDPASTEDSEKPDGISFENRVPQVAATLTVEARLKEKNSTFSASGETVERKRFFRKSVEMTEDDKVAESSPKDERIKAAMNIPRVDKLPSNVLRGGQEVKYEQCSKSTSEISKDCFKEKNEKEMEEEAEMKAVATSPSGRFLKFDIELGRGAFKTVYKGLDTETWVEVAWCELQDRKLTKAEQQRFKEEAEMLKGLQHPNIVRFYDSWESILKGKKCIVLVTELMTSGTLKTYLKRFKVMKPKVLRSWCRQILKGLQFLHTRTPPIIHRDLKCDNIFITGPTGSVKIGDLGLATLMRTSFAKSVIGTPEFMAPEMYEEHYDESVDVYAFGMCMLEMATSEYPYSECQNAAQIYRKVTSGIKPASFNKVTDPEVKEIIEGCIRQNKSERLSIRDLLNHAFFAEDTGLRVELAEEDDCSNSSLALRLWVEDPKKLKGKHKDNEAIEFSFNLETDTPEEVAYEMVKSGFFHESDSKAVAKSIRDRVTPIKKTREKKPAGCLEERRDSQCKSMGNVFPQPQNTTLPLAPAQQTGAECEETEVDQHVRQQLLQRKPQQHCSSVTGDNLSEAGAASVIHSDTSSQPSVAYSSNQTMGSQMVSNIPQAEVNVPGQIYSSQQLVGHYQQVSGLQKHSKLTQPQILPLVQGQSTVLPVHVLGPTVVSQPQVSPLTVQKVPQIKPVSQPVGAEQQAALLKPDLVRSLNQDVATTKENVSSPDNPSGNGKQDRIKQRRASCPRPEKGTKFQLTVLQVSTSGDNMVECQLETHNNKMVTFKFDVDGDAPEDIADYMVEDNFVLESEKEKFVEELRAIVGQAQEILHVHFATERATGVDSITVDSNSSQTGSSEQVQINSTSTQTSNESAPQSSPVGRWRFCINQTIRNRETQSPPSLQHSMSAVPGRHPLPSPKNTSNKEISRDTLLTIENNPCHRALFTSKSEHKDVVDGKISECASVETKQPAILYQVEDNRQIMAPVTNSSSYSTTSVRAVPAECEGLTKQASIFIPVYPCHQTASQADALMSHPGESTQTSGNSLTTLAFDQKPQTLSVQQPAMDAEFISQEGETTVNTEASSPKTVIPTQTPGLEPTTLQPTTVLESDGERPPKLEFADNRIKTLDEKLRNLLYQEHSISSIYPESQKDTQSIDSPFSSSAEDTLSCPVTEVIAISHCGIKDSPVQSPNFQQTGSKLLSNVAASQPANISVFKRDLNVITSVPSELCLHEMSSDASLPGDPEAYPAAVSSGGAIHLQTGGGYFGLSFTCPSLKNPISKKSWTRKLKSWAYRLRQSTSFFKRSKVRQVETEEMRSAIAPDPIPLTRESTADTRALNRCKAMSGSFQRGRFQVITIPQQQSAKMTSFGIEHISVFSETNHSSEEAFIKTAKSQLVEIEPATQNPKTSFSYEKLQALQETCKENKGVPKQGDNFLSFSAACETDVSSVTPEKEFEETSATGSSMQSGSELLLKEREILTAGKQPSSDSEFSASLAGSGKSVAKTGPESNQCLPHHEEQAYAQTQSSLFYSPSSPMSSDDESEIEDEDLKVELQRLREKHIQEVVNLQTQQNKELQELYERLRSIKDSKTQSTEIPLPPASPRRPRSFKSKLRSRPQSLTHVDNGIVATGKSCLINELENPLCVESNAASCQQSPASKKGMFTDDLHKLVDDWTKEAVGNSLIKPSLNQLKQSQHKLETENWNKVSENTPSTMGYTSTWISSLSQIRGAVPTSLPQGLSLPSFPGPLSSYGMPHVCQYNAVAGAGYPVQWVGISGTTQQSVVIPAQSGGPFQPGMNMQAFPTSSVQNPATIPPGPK
FGFR2(N549H)(h), sequence (P21802 22-821 N549H): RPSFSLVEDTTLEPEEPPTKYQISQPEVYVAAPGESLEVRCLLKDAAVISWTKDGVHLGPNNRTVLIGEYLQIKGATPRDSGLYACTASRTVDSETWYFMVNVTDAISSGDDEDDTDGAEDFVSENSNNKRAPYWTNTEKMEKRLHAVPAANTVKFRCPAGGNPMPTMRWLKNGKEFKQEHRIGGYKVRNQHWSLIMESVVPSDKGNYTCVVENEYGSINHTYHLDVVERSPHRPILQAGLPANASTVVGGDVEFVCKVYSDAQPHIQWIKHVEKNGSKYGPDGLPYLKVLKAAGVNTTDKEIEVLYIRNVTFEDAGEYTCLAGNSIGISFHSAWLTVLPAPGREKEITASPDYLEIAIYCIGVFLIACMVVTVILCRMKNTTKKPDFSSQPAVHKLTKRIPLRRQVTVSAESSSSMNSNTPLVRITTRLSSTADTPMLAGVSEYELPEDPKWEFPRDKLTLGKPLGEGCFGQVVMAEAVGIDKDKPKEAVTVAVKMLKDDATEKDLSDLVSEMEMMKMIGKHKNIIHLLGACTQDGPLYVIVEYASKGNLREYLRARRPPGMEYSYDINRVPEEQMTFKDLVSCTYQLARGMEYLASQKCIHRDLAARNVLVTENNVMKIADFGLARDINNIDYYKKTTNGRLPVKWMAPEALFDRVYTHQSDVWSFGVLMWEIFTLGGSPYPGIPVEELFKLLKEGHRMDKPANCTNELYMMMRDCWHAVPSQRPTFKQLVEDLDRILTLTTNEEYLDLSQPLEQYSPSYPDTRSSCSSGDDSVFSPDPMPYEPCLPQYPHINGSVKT

Consider `COc1cc(OC)c(Cl)c(-c2ccc3c(NC(=O)c4ccc(N5CCNC(C)(C)C5)cc4)n[nH]c3n2)c1Cl` [3D185], for which the inhibition at 0.01 µM at PhKγ2(h) (10 nM) was 12%; on IKKε(h) (10 nM), -4%; on DMPK(h) (10 nM), 2%; at WNK3(h) (10 nM) it was -7%; at FGFR2(N549H)(h) (read-out: Inhibition rate (%)) it was 96%. Also, the inhibition at 0.1 µM at PhKγ2(h) (100 nM) is -8%; at IKKε(h) (100 nM), 2%; at DMPK(h) (100 nM) it was 3%; at WNK3(h) (100 nM), 12%; at FGFR2(N549H)(h) (read-out: Inhibition rate (%)), 98%. Also, the inhibition at 1 µM is -3% at PhKγ2(h) (1000 nM); 5% on IKKε(h) (1000 nM); 2% on DMPK(h) (1000 nM); 71% at WNK3(h) (1000 nM); 100% at FGFR2(N549H)(h) (read-out: Inhibition rate (%)). In assay [1], the “effect on MC38 tumor growth” value is given as “delayed tumor growth”. Besides, the pIC50 on FGFR2(N549H)(h) (estimated from 372-kinase panel) was above 8.00; in assay [2] (FGFR1-, FGFR2-, FGFR3- and CSF-1R-mediated proliferation, read-out: IC50 values, range over cell lines), 7.43 to 9.05; in assay [2] (mean over CSF-1R dependent and FGFRs dependent lines, read-out: Mean IC50), 7.76.

The record behind these values is paper PMC6704710, “Preclinical evaluation of 3D185, a novel potent inhibitor of FGFR1/2/3 and CSF-1R, in FGFR-dependent and macrophage-dominant cancer models” (Journal of Experimental & Clinical Cancer Research : CR, 2019).
